# Where “and” joins values, the source holds several entries; their conditions need not be identical. Identical values can stand only once. Entries after “also recorded” stand apart in the source; their conditions may differ.
# Columns and labels:
# [1] = target: T1, plasma membrane DA transporter (rat striatal synaptosomes) (Rattus norvegicus, UniProt P23977); experiment: [3H]DA uptake assay, striatal synaptosomal preparation; format: biochemical; conditions: read-out: IC50, inhibition of [3H]DA uptake into synaptosomes
# T1 construct: from tissue; host or cells: rat striatum, synaptosomes
# T1 sequence (P23977 whole entry): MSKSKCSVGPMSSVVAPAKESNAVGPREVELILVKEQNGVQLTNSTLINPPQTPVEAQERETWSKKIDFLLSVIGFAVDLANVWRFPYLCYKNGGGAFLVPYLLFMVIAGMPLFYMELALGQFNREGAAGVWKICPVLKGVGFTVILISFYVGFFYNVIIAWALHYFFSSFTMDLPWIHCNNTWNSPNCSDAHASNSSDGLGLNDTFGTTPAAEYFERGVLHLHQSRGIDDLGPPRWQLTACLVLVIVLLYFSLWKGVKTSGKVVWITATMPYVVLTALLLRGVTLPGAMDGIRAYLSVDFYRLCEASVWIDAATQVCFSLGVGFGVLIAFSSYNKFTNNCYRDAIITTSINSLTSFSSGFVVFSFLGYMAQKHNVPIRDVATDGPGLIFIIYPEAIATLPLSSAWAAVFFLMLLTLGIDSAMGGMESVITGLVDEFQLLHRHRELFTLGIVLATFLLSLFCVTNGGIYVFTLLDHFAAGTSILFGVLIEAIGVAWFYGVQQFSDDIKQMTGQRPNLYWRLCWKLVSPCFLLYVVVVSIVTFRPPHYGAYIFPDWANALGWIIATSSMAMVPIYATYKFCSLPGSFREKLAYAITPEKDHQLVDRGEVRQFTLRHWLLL
# Protocol: The homogenate was centrifuged at 2,000×g for 10 min at 4° C. […] The final protein concentration was 400 μg/mL. The assay was performed in duplicate in a total volume of 500 μL. […] The incubation continued for 10 min at 34° C. The reaction was terminated by the addition of 3 mL cold assay buffer (without 1 mM catechol). Samples were rapidly filtered through a Whatman GF/B filter using a Brandel cell harvester (model MP-43 RS, Biochemical Research and Development Laboratories, Inc., Gaithersburg, Md.) and the filter was subsequently washed 3 times with 4 mL of cold assay buffer containing 1 mM catechol. Filters were previously soaked for 2 hrs in the cold assay buffer containing 1 mM catechol. […] Filters were placed into scintillation vials, 10 mL of scintillation cocktail was added and radioactivity was determined by scintillation spectrometry.
# Inhibition of synaptosomal and vesicular [^3 H]DA uptake were analyzed by repeated-measures, one-way ANOVA, and by an iterative nonlinear least-squares curve-fitting program (GraphPAD-PRIZM; GraphPAD, San Diego, Calif.) to obtain IC50 values. Dunnett's post hoc test was used to compare treatment means to a single control mean. Also, Duncan's New Multiple Range Test or Fisher's LSD post hoc analysis were used to compare pairs of treatment means. […]
# [2] = system: rat striatal synaptic vesicles; experiment: [3H]DA release from striatal synaptic vesicles preloaded with [3H]DA; format: biochemical
# Protocol: The homogenate was then centrifuged at 2,000×g for 10 min at 4° C. and the resulting supernatant was centrifuged at 10,000×g for 30 min at 4° C. Synaptosomes (buffy coat) were separated from the underlying mitochondria and cellular debris (reddish pellet) by gentle swirling in 2 mL of 0.32 M sucrose. The enriched synaptosome fraction (2.0 mL) was subjected to osmotic shock by addition of 7 mL distilled H2 0 and was homogenized with 5 up and down strokes of the TEFLON pestle. The osmolarity was restored by the addition of 900 μL of 0.25 M HEPES and 900 μL of 1.0 M neutral potassium-tatrate buffer (pH 7.5) followed by a 20 min centrifugation (20,000×g at 4° C.). The supernatant was then centrifuged for 60 min (55,000×g at 4° C.).
# The final vesicle pellet from a pool of striata from three rats was resuspended in 3 mL of release assay buffer (in mM: 25 HEPES, 100 L-(+)-tartaric acid dipotassium salt, 0.05 EGTA, 0.10 EDTA, 2 Mg^2+ -ATP, and 1.7 ascorbic acid, pH 7.4) and then incubated with [^3 H]DA (0.3 μM) for 8 min at 37° C. […] [^3 H]DA efflux represents the net result of events, i.e., release and reuptake. […] The reaction was terminated by addition of 2.5 mL of ice-cold assay buffer containing 2 mM MgSO4. Samples were rapidly filtered through Whatman GF/F filters using the Brandel cell harvester.
# The amount of drug-induced [^3 H]DA release from synaptic vesicles was calculated by subtracting the amount of tritium remaining in the drug-exposed samples from that remaining in the control samples (in the absence of drug). The amount of drug-induced [^3 H]DA release was then divided by the amount of tritium remaining in the control samples and was expressed as a percentage of control.
# Concentration-response and kinetic data were analyzed by repeated-measures one-way ANOVA and between-group one-way ANOVA, respectively. When appropriate, Fisher's least significant difference post hoc test was used to determine significant differences between treatment means. IC50 and EC50 values were obtained by an iterative nonlinear least-squarescurve-fitting program (GraphPAD-PRIZM: GraphPAD, San Diego, Calif., U.S.A.) for one-site competition and sigmoidal concentration response, respectively. The t1/2 was obtained by an iterative nonlinear least-squares curve-fitting program for one-phase decay. KD and Bmax values were obtained by Scatchard analysis using an iterative linear least-squares curve-fitting program.
# [3] = target: central nicotinic receptors; conditions: read-out: Ki, displacement of [3H]nicotine binding; cited from earlier work
# [4] = system: nicotinic receptors in mouse brain; conditions: in vivo; cited from earlier work
# [5] = system: locomotor activity in rats; conditions: rat, in vivo; cited from earlier work
# [6] = system: conditioned place preference in rats; conditions: rat, in vivo; cited from earlier work
# [7] = system: tobacco smoking cessation; conditions: short-term use as smoking deterrent; cited from earlier work
# [8] = system: rat striatal synaptosomes; conditions: cited from earlier work
# anesthetized rats = conditions: urethane and pentobarbital anesthetized rats; cited from earlier work
# anxiolytic activity = conditions: in vivo; cited from earlier work
# [9] = system: tachycardia and hypertension; conditions: in vivo; cited from earlier work
smiles,measurement,setting,value
"CN1[C@@H](CC(=O)c2ccccc2)CCC[C@H]1C[C@H](O)c1ccccc1 [Lobeline, 2-[G-(β-hydroxyphenethyl)-1-methyl-2-piperidyl]-acetophenone]",IC50,[1],80 ± 12 µM
same,lowest concentration to evoke [3H]DA release from vesicles,"[2]; 8 min, 37° C.",10 µM
same,EC50,"[2]; 8 min, 37° C., read-out: EC50, evoked [3H]DA release from synaptic vesicles",25.3 µM and 25 µM
same,t1/2 of [3H]DA efflux from vesicles,[2]; drug at 10 times the EC50,1.58 ± 0.09 min
same,Ki,[3],0.005 to 0.03 µM
same,number of nicotinic receptors after chronic treatment,[4],did not increase the number of nicotinic receptors
same,locomotor activity,[5],does not increase locomotor activity
same,conditioned place preference,[6],"does not produce conditioned place preference; also recorded: does not increase locomotor activity (Stolerman et al., 1995) or produce conditioned place preference"
same,acute toxicity,[7],"nausea, severe heartburn and dizziness"
same,DA release from superfused striatal synaptosomes,[8],increase DA release
same,cardiovascular effects,anesthetized rats,bradycardia and hypotension
same,anxiolytic activity,anxiolytic activity,anxiolytic activity
same,cardiovascular effects,[9],tachycardia and hypertension

# Reference: patent US6087376A (priority 1998, dated 2000)
